The values that follow come from patent US8314217B2, “Cross-linked glycopeptide-cephalosporin antibiotics” (priority 2003, dated 2012).

For test [1], the system named is methicillin-susceptible Staphylococcus aureus (MSSA 13709) and methicillin-resistant Staphylococcus aureus (MRSA 33591). Nature of the test: In vivo efficacy in neutropenic mice (thigh infection). As to conditions: iv, 24 h, read-out: ED50 (dose required to produce 50% of the maximum reduction in thigh titre). Further details: species or system Male CD-1 mice. The method, then: Animals (Male CD-1 mice, 20-30 g) were acquired from Charles Rivers Laboratories (Gilroy, Calif.) and allowed access to food and water ad libitum. Neutropenia was induced via 200 mg/kg intraperitoneal (IP) injection of cyclophosphamide given four and two days prior to the inoculation of bacteria.
The organism used was either a susceptible or resistant strain of clinically relevant Gram-positive pathogens, such as methicillin-susceptible Staphylococcus aureus (MSSA 13709) and methicillin-resistant Staphylococcus aureus (MRSA 33591). The bacterial inoculum concentration was ˜10^6 CFU/mL. Animals were lightly anesthetized with isoflurane and […] of the bacterial inoculum was injected into the anterior thigh. One hour after the inoculation, animals were dosed intravenously with vehicle or the appropriate dose of the test compound. At 0 hours and 24 hours post-treatment, the animals were euthanized (CO2 asphyxiation) and the anterior and posterior thigh collected aseptically. The thigh was placed into 10 mL sterile saline and homogenized. Dilutions of the homogenate were plated onto triptic soy agar plates which were incubated overnight. The number of bacterial colonies on a given plate was multiplied by the dilution factor, divided by the thigh weight (in grams) and expressed as log CFU/g. […]

Test [2] has as its system MRSA 33591. Briefly: Minimal inhibitory concentration (MIC), broth microdilution. The test is classed as cell-based, methicillin-resistant Staphylococcus aureus. The settings on record: Staphylococcus aureus, read-out: MIC MRSA 33591. As for the experimental part:
(§1) Minimal inhibitory concentration (MICs) assays were performed using the broth microdilution method set forth in NCCLS guidelines (see, NCCLS. 2000. Methods for Dilution Antimicrobial Susceptibility Tests for Bacteria That Grow Aerobically; Approved Standard—Fifth Ed., Vol. 20, No. 2). Bacterial strains were obtained from the American Type Tissue Culture Collection (ATCC), Stanford University Hospital (SU), Kaiser Permanente Regional Laboratory in Berkeley (KPB), Massachusetts General Hospital (MGH), the Centers for Disease Control (CDC), the San Francisco Veterans' Administration Hospital (SFVA) or the University of California San Francisco Hospital (UCSF). Vancomycin-resistant enterococci were phenotyped as Van A or Van B based on their sensitivity to teicoplanin. Some vancomycin-resistant enterococci that had been genotyped as Van A, Van B, Van C1 or Van C2 were also obtained from the Mayo Clinic.
(§2) In this assay, cryopreserved bacterial cultures of reference and clinical strains were streaked for isolation on appropriate agar medium (i.e., Trypticase Soy Agar, Trypticase Soy Agar with defibrinated sheep erythrocytes, Brain Heart Infusion Agar, Chocolate Agar). Following incubation to allow formation of colonies, these plates were sealed with Parafilm® and stored refrigerated for up to two weeks. […] The MIC was read visually as the lowest concentration well with no bacterial growth. […]

Test [3] concerns MRSA 33591. Nature of the test: Time-kill assay. The settings on record: MRSA 33591, in 24 hours. The class given is cell-based, methicillin-resistant Staphylococcus aureus. As for the experimental part: This time-kill assay is a method for measuring the rate of bactericidal activity of a test compound. […] A rapid time-kill is desirable to quickly prevent bacterial colonization and reduce host tissue damage.
Bacteria were diluted in prewarmed media in shake flasks and incubated with shaking (200 rpm, 35° C.). At 0, 1, 4, and 24 hours samples were withdrawn from the flasks and bacteria were enumerated by plate counting. Subsequent to the initial sampling, a compound to be assayed was added to the shake flask culture. Plate counts at these intervals previous to and following addition of the compound were expressed graphically in a time-kill curve.

Test [4] concerns MSSA 13709. Nature of the test: Minimal inhibitory concentration (MIC), broth microdilution. The class given is cell-based, methicillin-susceptible Staphylococcus aureus. The settings on record: Staphylococcus aureus, read-out: MIC MSSA 13709. The method, then: as §1, §2

In brackets after ≈: the same amount, converted by molar mass.

Consider `CN[C@H](CC(C)C)C(=O)N[C@H]1C(=O)N[C@@H](CC(N)=O)C(=O)N[C@H]2C(=O)N[C@H]3C(=O)N[C@H](C(=O)N[C@H](C(=O)O)c4cc(O)cc(O)c4-c4cc3ccc4O)[C@H](O)c3ccc(c(Cl)c3)Oc3cc2cc(c3O[C@@H]2O[C@H](CO)[C@@H](O)[C@H](O)[C@H]2O[C@H]2C[C@](C)(N)[C@H](O)[C@H](C)O2)Oc2ccc(cc2Cl)[C@H]1O` [Vancomycin], for which, in test [1], the ED50 amounted to 9 mg/kg. Also, the minimal inhibitory concentration (MIC) is 2 µg/mL (≈ 1.38 µM) in test [2] and 1 µg/mL (≈ 0.69 µM) in test [4]. In addition, the “bactericidal concentration (≧3 log decrease in bacterial cell numbers)” value in test [3] was 4 μg/mL.
